# In US11987579B2 (Duke University, priority 2018, dated 2024):
# System: CCD841Co colonic cells
# Test: Assessment of oxygen consumption rate (OCR), Seahorse XFp
# Assay type: cell-based
# Settings: 1 μM FCCP, cells treated with DMSO control media
# Method: Colonic epithelial CCD841Co cells were plated in Seahorse XFp 8-well miniplates at 8000 cells/well and allowed to attach overnight at 37° C. in a 5% CO2 incubator. Polarographic analysis of OCR was performed using Seahorse XF Analyzer (Agilent Technologies, Santa Clara, Calif.) and a Seahorse XFp Cell Mito Stress Test Kit (Agilent Technologies, catalog number 103010-100). […] Data were analyzed by the software Wave (Version 2.3.0.20, Agilent Technologies, Santa Clara, Calif.).
smiles,measurement,value
N#CC(C#N)=NNc1ccc(OC(F)(F)F)cc1 [FCCP],oxygen consumption rate after control compound addition,increases oxygen consumption rate
